In PubChem BioAssay (NCI):
Values joined by “and” are separate entries in the source; they are usually repeats but may differ in a detail not shown here. Identical values can stand only once.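 All cell lines were grown in 96-well plates and treated with compound for 48 hours. The concentration for 50% growth inhibition is given as GI50. TGI is the concentration that stops growth completely.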

What was measured:
Experiment in all cases: inhibition of tumour cell growth, NCI panel, 48 h
NCI-H522 lung = tested on: NCI-H522 lung
CCRF-CEM leukemia = tested on: CCRF-CEM leukemia
SNB-19 CNS = tested on: SNB-19 CNS
MDA-MB-435 = tested on: MDA-MB-435
SW-620 colon = tested on: SW-620 colon
NCI-H23 lung = tested on: NCI-H23 lung
HCT-116 colon = tested on: HCT-116 colon
SK-OV-3 ovarian = tested on: SK-OV-3 ovarian
UO-31 renal = tested on: UO-31 renal
SK-MEL-28 melanoma = tested on: SK-MEL-28 melanoma

| SMILES | TGI (NCI-H522 lung) | TGI (CCRF-CEM leukemia) | TGI (SNB-19 CNS) | TGI (MDA-MB-435) | TGI (SW-620 colon) | TGI (NCI-H23 lung) | TGI (HCT-116 colon) | TGI (SK-OV-3 ovarian) | TGI (UO-31 renal) | TGI (SK-MEL-28 melanoma) | GI50 (NCI-H522 lung) | GI50 (CCRF-CEM leukemia) | GI50 (SNB-19 CNS) | GI50 (MDA-MB-435) | GI50 (SW-620 colon) | GI50 (NCI-H23 lung) | GI50 (HCT-116 colon) | GI50 (SK-OV-3 ovarian) | GI50 (UO-31 renal) | GI50 (SK-MEL-28 melanoma) |
| --- | --- | --- | --- | --- | --- | --- | --- | --- | --- | --- | --- | --- | --- | --- | --- | --- | --- | --- | --- | --- |
| CCCCCc1cc(/C=C2/N=C(c3ccc[nH]3)C=C2OC)[nH]c1C | 0.209 µM | 0.209 µM | 1.5 µM | 0.187 µM | 0.206 µM | 0.346 µM | < 0.0387 µM | 1.13 µM | < 0.0193 µM | 0.805 µM |  |  |  |  |  |  |  |  |  |  |
| CC(C)(C)N1CC1CNC(=O)C(=O)NCC1CN1C(C)(C)C (stereo not given) | 2.15 µM | 15.2 µM | > 25.5 µM | > 100 µM | > 11 µM | 5.96 µM | 10.8 µM | 13.4 µM | > 21.3 µM | 11.1 µM |  |  |  |  |  |  |  |  |  |  |
| CC(C)n1cc(-c2ccc3c(c2)N(C)CC3)c2c(NS(=O)(=O)c3ccn(C)n3)ccnc21 | > 100 µM | > 100 µM | > 100 µM | > 100 µM | > 100 µM | > 100 µM | > 100 µM | > 100 µM | > 100 µM | > 100 µM | 49.3 µM | > 100 µM | > 100 µM | 83 µM | 69.7 µM | 74.6 µM | 48 µM | > 100 µM | 31.7 µM | 34.5 µM |
| CC[C@]12C=CCN3CC[C@]4(C(=C(C(=O)OC)C1)Nc1cc5c(cc14)[C@@H]1[C@H](O5)[C@@H](O)[C@@]4(CC)CC(C(=O)OC)=C5Nc6ccccc6[C@@]56CCN1[C@@H]46)[C@@H]32 | 2.75 µM and 5.33 µM | 25 µM and > 100 µM | 25 µM and 42.1 µM | 25 µM and 10.8 µM | 13.5 µM and 7.85 µM | 4.51 µM and 1.46 µM | 2.59 µM and 1.65 µM | 25 µM | 3.31 µM and 6.25 µM | 9.29 µM and 24.2 µM | 0.202 µM and 0.312 µM | 0.238 µM and 0.345 µM | 0.644 µM and 0.592 µM | 0.395 µM and 0.309 µM | 0.868 µM and 0.495 µM | 0.577 µM and 0.316 µM | 0.216 µM and 0.341 µM | 1.09 µM | 0.0951 µM and 0.127 µM | 1.07 µM and 1.32 µM |
| NC(=O)c1c[nH]c2ncnc(N)c12 | > 100 µM | > 100 µM | > 100 µM | > 100 µM | > 100 µM | > 100 µM | > 100 µM | 83 µM | 80.9 µM | > 100 µM | > 100 µM | 29.5 µM | > 100 µM | 26.6 µM | 27.1 µM | > 100 µM | 45.5 µM | 25.9 µM | 22.4 µM | 58.8 µM |
| CC(C)C[C@H](NC(=O)[C@@H](Cc1ccccc1)n1ccc(Nc2ccccc2)cc1=O)B(O)O | 0.821 µM | 5.98 µM | > 100 µM | 0.34 µM | 14.4 µM | 19.4 µM | 1.23 µM | 18.8 µM | 3.13 µM | 2.98 µM | 0.242 µM | 0.34 µM | 0.714 µM | 0.155 µM | 0.32 µM | 0.835 µM | 0.257 µM | 0.653 µM | 0.561 µM | 0.349 µM |
| COc1ccc(-c2cc(=O)c3c(OC)c4ccoc4c(/C=C/C=O)c3o2)cc1 | > 100 µM | > 100 µM | 46.6 µM | 32.3 µM | 10.4 µM | 13 µM | 3.43 µM | 23 µM | 19.5 µM | 7.1 µM | 34.6 µM | 1.09 µM | 3.16 µM | 2.81 µM | 2.3 µM | 2.8 µM | 1.06 µM | 4.73 µM | 3.17 µM | 2.52 µM |
| COc1cc(-c2oc3c(OC)c(O)c(OC)c(O)c3c(=O)c2OC)cc(OC)c1OC | 81.8 µM | > 100 µM | > 100 µM | > 100 µM | > 100 µM | > 100 µM | > 100 µM | > 100 µM | > 100 µM | > 100 µM |  |  |  |  |  |  |  |  |  |  |
| CCN1CCN(Cc2ccc(Nc3ncc(F)c(-c4cc(F)c5nc(C)n(C(C)C)c5c4)n3)nc2)CC1 | 18.1 µM | 15 µM | 12.4 µM | 10.7 µM | 11.9 µM | 15.2 µM | 11.7 µM | 11.7 µM | 7.26 µM | 12.9 µM | 8.92 µM | 1.14 µM | 5.48 µM | 0.191 µM | 0.192 µM | 3.26 µM | 0.336 µM | 3.22 µM | 0.139 µM | 6.03 µM |
| NS(=O)(=O)c1ccc(N=Nc2c(O)[nH]c3ccc(C(=O)NCCCn4ccnc4)cc23)cc1 | > 25 µM | > 25 µM | > 25 µM | > 25 µM | > 25 µM | > 25 µM | > 25 µM | > 25 µM | > 25 µM | > 25 µM | > 25 µM | > 18.5 µM | > 25 µM | > 25 µM | > 25 µM | > 25 µM | > 25 µM | > 25 µM | > 25 µM | > 25 µM |
| Cc1nc2ccc(-n3ncc(C(=O)c4cc5ccccc5[nH]4)c3N)cc2[nH]1 | 33.3 µM | 96 µM | > 100 µM | > 100 µM | > 100 µM | > 100 µM | > 100 µM | > 100 µM | 33.2 µM | > 100 µM | 10.1 µM | 9.24 µM | 15.4 µM | 14.5 µM | 7.78 µM | 15.9 µM | 4.51 µM | 14 µM | 10 µM | 8.78 µM |
